Legend:
[1] = Oral bioavailability in rat; type: ADME, organism-based; conditions: in vivo
[2] = in vivo; conditions: rat
[3] = Intrinsic clearance in rat hepatocytes assessed per 10^6 cells
[4] = Percentage unbound in rat plasma at 37 degC by equilibrium dialysis method; type: ADME, cell-free
[5] = Lipophilicity, log D at pH 7.4 by shake flask method; conditions: buffer

With `CSc1c(C(=O)NC2C3CC4CC(C3)CC2C4)cnn1-c1ccc(C(=O)O)cc1` (configuration not stated) the bioavailability [1] was 64%, the clearance [2] was 11 mL/min/kg and the hepatocyte CLint [3] was < 2 µL/min/1e6 cells. The fraction unbound [4] was 0.0336 and the logD [5] was 1.2.
In the case of `O=C(O)c1ccc(-n2ncc(C(=O)NC3C4CC5CC(C4)CC3C5)c2C(F)(F)F)cc1` (configuration not stated), the bioavailability [1] is reported as > 100% and the fraction unbound [4] is reported as 0.045.
In the case of `Cc1c(C(=O)NC2C3CC4CC(C3)CC2C4)cnn1-c1ccc(C(=O)O)cc1` (configuration not stated), the bioavailability [1] is reported as > 100%, the clearance [2] is reported as 8 mL/min/kg and the hepatocyte CLint [3] is reported as < 3 µL/min/1e6 cells. For the same compound, the fraction unbound [4] was 0.127.
With `CCCSc1c(C(=O)NC2C3CC4CC(C3)CC2C4)cnn1-c1ccc(C(=O)O)cc1` (configuration not stated) the bioavailability [1] was 45%, the fraction unbound [4] was 0.005 and the logD [5] was 1.8.
For `O=C(O)c1ccc(-n2ncc(C(=O)NC3C4CC5CC(C4)CC3C5)c2C2CCCC2)cc1` (configuration not stated), the bioavailability [1] was > 100%, the fraction unbound [4] was 0.004 and the logD [5] was 1.7.
`CCCSc1c(C(=O)N[C@H]2C3CC4CC2C[C@](OC(F)F)(C4)C3)cnn1-c1ccc(C(=O)O)cc1` showed a bioavailability [1] of 40%, a clearance [2] of 9.4 mL/min/kg and a hepatocyte CLint [3] of 18 µL/min/1e6 cells. The fraction unbound [4] was 0.026 and the logD [5] was 1.2.
`CCCSc1c(C(=O)NC2CCCCC2)cnn1C` gave a bioavailability [1] of 0%, a fraction unbound [4] of 0.132 and a logD [5] of 3.
In the case of `CCCSc1c(C(=O)N[C@H]2C3CC4CC2C[C@](S(C)(=O)=O)(C4)C3)cnn1-c1ccc(C(=O)O)cc1`, the bioavailability [1] is reported as 7%, the fraction unbound [4] is reported as 0.134 and the logD [5] is reported as < 0.5.
`CCCSc1c(C(=O)NC2CCCCC2)cnn1[C@H]1CC[C@H](C(=O)O)CC1` showed a bioavailability [1] of 100%, a clearance [2] of 2.5 mL/min/kg and a hepatocyte CLint [3] of 7.5 µL/min/1e6 cells. The fraction unbound [4] was 0.093 and the logD [5] was 1.
For `CC(C)c1c(C(=O)NC2C3CC4CC(C3)CC2C4)cnn1-c1ccc(C(=O)O)cc1` (configuration not stated), the bioavailability [1] was 53%, the clearance [2] was 2.2 mL/min/kg and the hepatocyte CLint [3] was < 2 µL/min/1e6 cells. It also gave a fraction unbound [4] of 0.036 and a logD [5] of 1.2.
In the case of `CC1(c2c(C(=O)NC3C4CC5CC(C4)CC3C5)cnn2-c2ccc(C(=O)O)cc2)CC1` (configuration not stated), the bioavailability [1] is reported as > 100%, the clearance [2] is reported as 19 mL/min/kg and the hepatocyte CLint [3] is reported as 11 µL/min/1e6 cells. It also gave a fraction unbound [4] of 0.033 and a logD [5] of 1.1.
In the case of `CCc1c(C(=O)NC2C3CC4CC(C3)CC2C4)cnn1-c1ccc(C(=O)O)cc1` (configuration not stated), the bioavailability [1] is reported as > 100%, the fraction unbound [4] is reported as 0.06 and the logD [5] is reported as 0.9.
With `O=C(O)c1ccc(-n2ncc(C(=O)NC3C4CC5CC(C4)CC3C5)c2SC2CCCCC2)cc1` (configuration not stated) the bioavailability [1] was 82%, the clearance [2] was 3.6 mL/min/kg and the hepatocyte CLint [3] was 9.4 µL/min/1e6 cells. It also gave a fraction unbound [4] of 0.0013 and a logD [5] of 3.
For `CCCSc1c(C(=O)NC2CCCCC2)cnn1-c1cccc(C(=O)O)c1`, the bioavailability [1] was > 100%, the clearance [2] was 17 mL/min/kg and the hepatocyte CLint [3] was 17 µL/min/1e6 cells. The fraction unbound [4] was 0.02 and the logD [5] was 0.7.
`O=C(O)c1ccc(-n2ncc(C(=O)NC3C4CC5CC(C4)CC3C5)c2C2CC2)cc1` (configuration not stated) gave a bioavailability [1] of 51%, a clearance [2] of 14 mL/min/kg and a hepatocyte CLint [3] of 15 µL/min/1e6 cells. It also gave a fraction unbound [4] of 0.045 and a logD [5] of 0.9.
For `O=C(O)c1ccc(-n2ncc(C(=O)NC3C4CC5CC(C4)CC3C5)c2C2CCC2)cc1` (configuration not stated), the bioavailability [1] was > 100%, the clearance [2] was 1.3 mL/min/kg and the hepatocyte CLint [3] was < 3 µL/min/1e6 cells. The fraction unbound [4] was 0.012.
In the case of `CCCSc1c(C(=O)N(C)C2CCCCC2)cnn1-c1ccc(C(=O)O)cc1`, the bioavailability [1] is reported as 26%, the clearance [2] is reported as 8.1 mL/min/kg and the hepatocyte CLint [3] is reported as 26 µL/min/1e6 cells. The fraction unbound [4] was 0.025 and the logD [5] was 0.6.
With `CCCSc1c(C(=O)NC2CCCCC2)cnn1-c1ccc(C(=O)O)cc1` the bioavailability [1] was 72%, the clearance [2] was 4.5 mL/min/kg and the hepatocyte CLint [3] was < 3 µL/min/1e6 cells. It also gave a fraction unbound [4] of 0.04 and a logD [5] of 0.6.
With `CCCSc1ncccc1C(=O)NC1CCCCC1` the logD [5] was 3.2.
`O=C(O)c1ccc(-n2cc(C(=O)NC3C4CC5CC(C4)CC3C5)cn2)cc1` (configuration not stated) showed a hepatocyte CLint [3] of 6.6 µL/min/1e6 cells and a fraction unbound [4] of 0.107.
In the case of `CCCSc1c(C(=O)NC2CCCCC2)cnn1[C@H]1CC[C@@H](C(=O)O)CC1`, the bioavailability [1] is reported as 49%, the clearance [2] is reported as 43 mL/min/kg and the hepatocyte CLint [3] is reported as 58 µL/min/1e6 cells. It also gave a logD [5] of 1.4.

Source: ChEMBL document CHEMBL2177022, “Novel acidic 11β-hydroxysteroid dehydrogenase type 1 (11β-HSD1) inhibitor with reduced acyl glucuronide liability: the discovery of 4-[4-(2-adamantylcarbamoyl)-5-tert-butyl-pyrazol-1-yl]benzoic acid (AZD8329)” (J Med Chem, 2012)
